Experimental data published in article PMC8391236, “Effect of Pterostilbene, a Natural Derivative of Resveratrol, in the Treatment of Colorectal Cancer through Top1/Tdp1-Mediated DNA Repair Pathway” (Cancers, 2021).

How the values were obtained:
SW480 = experiment: Cell viability assay (CCK-8); assay type: cell-based; details: Homo sapiens
Procedure: PTE or RE were dissolved in DMSO and diluted with culture medium to 1–100 μM. The final concentration of DMSO was less than 0.1%, and 0.1% DMSO as negative control. CPT, as Top1 inhibitor, was diluted to 0.5 μM [36, 37], and FM, as Tdp1 inhibitor was diluted to 25 μM [38]. Exponentially growing cells were seeded in 96-well plates (5 × 10^3 cells/well) for 12 h. Various drugs were added separately and incubated for 24, 48, and 72 h. Cell viability was determined by CCK-8 (Beyotime Biotechnology, Shanghai, China) assay. […]
The drug concentration required for inhibiting cell proliferation by 50% (IC50) was determined by interpolation from dose-response curves.

siRNA-Top1 CL187 cells [1] = experiment: Cell viability of Top1-silenced cells; assay type: cell-based, Human
Procedure: (§1) PTE or RE were dissolved in DMSO and diluted with culture medium to 1–100 μM. The final concentration of DMSO was less than 0.1%, and 0.1% DMSO as negative control. […] Exponentially growing cells were seeded in 96-well plates (5 × 10^3 cells/well) for 12 h. Various drugs were added separately and incubated for 24, 48, and 72 h. Cell viability was determined by CCK-8 (Beyotime Biotechnology, Shanghai, China) assay.

siRNA-Tdp1 CL187 cells [2] = experiment: Cell viability of Tdp1-silenced cells; assay type: cell-based, Human
Procedure: as §1

CL187 cells [3] = experiment: Apoptosis by flow cytometry (Annexin V-FITC/PI); assay type: cell-based, Human; details: 48 h
Procedure: (§2) Exponentially growing CL187 cells were seeded in 6-well plates (1.2 × 10^6 cells/well) until a well was filled with cells. The RE or PTE at various concentrations were added separately into plate wells and incubated with cells for 48 h. The incubated cells were collected and treated by Annexin V-FITC/PI Apoptosis Detection Kit. The stained cells were analyzed with a flow cytometer (Becton-Dickinson, Franklin Lakes, NJ, USA), and data analyses were performed with BD Cell Quest^TM pro 6.0..

Tdp1-over CL187 cells = experiment: Apoptosis by flow cytometry; assay type: cell-based, Human; details: 48 h
Procedure: as §2

siRNA-Tdp1 CL187 cells [4] = experiment: Apoptosis by flow cytometry; assay type: cell-based, Human; details: 48 h
Procedure: as §2

siRNA-Top1 CL187 cells [5] = experiment: Apoptosis by flow cytometry; assay type: cell-based, Human; details: 48 h
Procedure: as §2

CL187 cells [6] = experiment: Cell cycle analysis by flow cytometry; assay type: cell-based, Human; details: 48 h, blank control 14.70%
P53 = experiment: Western blot for P53; assay type: cell-based, Human; details: CL187 cells, 12 h
Procedure: (§3) CL187 cells were treated with RE or PTE for 6 or 12 h, collected, and placed into lysis buffer (KeyGEN BioTECH, Nanjing, China). The total protein content in the cell lysates was measured using a BCA kit. Equivalent amount of total protein (30 μg) was loaded onto 10% SDS-PAGE gel. Electrophoresis was performed at 80 V for 25 min. After the sample went through concentrated gel, the voltage was adjusted to 120 V. Electrophoresis was stopped when the bromophenol blue band approached the bottom of the gel. After being transferred to PVDF membranes, the samples were incubated separately with 3 types of primary antibodies Top1, Tdp1, and P53 rabbit mAb (CST, Boston, MA, USA), followed by the incubation with secondary antibody goat anti-rabbit IgG (HRP)-conjugated (1:3000). ECL kit (New Cell and Molecular Biotech, Suzhou, China) was used for color development, and the images were collected by the gel imaging system (Tanon-5200, Shanghai, China).

Top1 mRNA = experiment: qPCR of Top1 mRNA in cells; assay type: cell-based, Human; details: 6 h
Procedure: CL187 cells were treated with different concentrations of RE and PTE for 6, 12, 24 h, collected, and added with TRIzol (Thermo Fisher Scientific, Waltham, MA, USA). RNA was precipitated by isopropyl alcohol and washed with 75% ethanol prepared from diethylpyrocarbonate (DEPC) water. The obtained total RNA was dissolved in DEPC water and reverse transcribed into cDNA by a Hifair Ⅲ 1st strand cDNA Synthesis SuperMix for qPCR Kit (Yeasen Biotech, Shanghai, China). The resultant cDNA was used as a template, and the primer sequences were (5′→3′): Top1: F: […], R: […]; Tdp1: F: ACCAGAGTTCAGGAAGAAG, R: TCATAGAGCAGCAGCATC. GAPDH: F: […], R: TCTTCCTCTTGTGCTCTTG. Transcription levels of Top1, Tdp1, and GAPDH genes were determined by qPCR. The qPCR was performed as follows: 95 °C for 10 min, 40 cycles of 95 °C for 10 s, and 60 °C for 30 s. The cycle threshold (Ct) value was determined, and the RQ value was calculated.

Top1 = experiment: Western blot of Top1 protein in cells; assay type: cell-based, Human; details: 6 h
Procedure: as §3

Tdp1 = experiment: Western blot of Tdp1 protein in cells; assay type: cell-based, Human; details: 6 h
Procedure: as §3

siRNA-Tdp1 CL187 cells [7] = experiment: Cell viability of Tdp1-silenced cells; assay type: cell-based; details: Homo sapiens, 36 h, siRNA-Tdp1 CL187, 36 h

COc1cc(/C=C/c2ccc(O)cc2)cc(OC)c1 [PTE, 3,5-dimethoxy-4′-hydroxy-trans-stilbene] showed an IC50 (SW480; SW480, 24 h) of 113 ± 24 µM, an IC50 (SW480; SW480, 48 h) of 35.7 ± 9.32 µM and an IC50 (SW480; SW480, 72 h) of 40.5 ± 10.8 µM. For the same compound, the IC50 (siRNA-Top1 CL187 cells [1]; Homo sapiens, 24 h, siRNA-Top1 CL187, 24 h) was 70 ± 16.2 µM, the IC50 (siRNA-Top1 CL187 cells [1]; Homo sapiens, 48 h, siRNA-Top1 CL187, 48 h) was 31.9 ± 8.11 µM and the IC50 (siRNA-Top1 CL187 cells [1]; Homo sapiens, 72 h, siRNA-Top1 CL187, 72 h) was 20.2 ± 4.1 µM. It also gave an IC50 (siRNA-Top1 CL187 cells [1]; siRNA-Top1 CL187, 72 h) of ~20 µM, an IC50 (siRNA-Tdp1 CL187 cells [2]; Homo sapiens, 24 h, siRNA-Tdp1 CL187, 24 h) of 74.2 ± 21.8 µM and an IC50 (siRNA-Tdp1 CL187 cells [2]; Homo sapiens, 48 h, siRNA-Tdp1 CL187, 48 h) of 24.8 ± 4.62 µM. For the same compound, the IC50 (siRNA-Tdp1 CL187 cells [2]; Homo sapiens, 72 h, siRNA-Tdp1 CL187, 72 h) was 18.4 ± 3.78 µM, the IC50 (siRNA-Tdp1 CL187 cells [2]; siRNA-Tdp1 CL187, 72 h) was ~20 µM and the “apoptosis rate (early and late apoptotic cells)” value (from here on “apoptosis rate”) (CL187 cells [3]; CL187, 10 μM) was 28.95%. The “apoptosis rate” value (CL187 cells [3]; CL187, 20 μM) was 29.69%, the “apoptosis rate” value (CL187 cells [3]; CL187, 50 μM) was 25.76% and the cell apoptotic proportion (Tdp1-over CL187 cells; Tdp1-over CL187, 10 μM) was 26.80%. For the same compound, the cell apoptotic proportion (Tdp1-over CL187 cells; Tdp1-over CL187, 20 μM) was 31.81%, the cell apoptotic proportion (Tdp1-over CL187 cells; Tdp1-over CL187, 50 μM) was 32.87% and the cell apoptotic proportion (siRNA-Tdp1 CL187 cells [4]; siRNA-Tdp1 CL187, 10 μM) was 18.16%. It also gave a cell apoptotic proportion (siRNA-Tdp1 CL187 cells [4]; siRNA-Tdp1 CL187, 20 μM) of 20.92%, a cell apoptotic proportion (siRNA-Tdp1 CL187 cells [4]; siRNA-Tdp1 CL187, 50 μM) of 24.38% and a cell apoptotic proportion (siRNA-Top1 CL187 cells [5]; siRNA-Top1 CL187, 10 μM) of 25.29%. The cell apoptotic proportion (siRNA-Top1 CL187 cells [5]; siRNA-Top1 CL187, 20 μM) was 29.42%, the cell apoptotic proportion (siRNA-Top1 CL187 cells [5]; siRNA-Top1 CL187, 50 μM) was 33.93% and the “proportion of G2/M-phase cells” value (CL187 cells [6]; CL187, 10 μM) was 48.69%. For the same compound, the “proportion of G2/M-phase cells” value (CL187 cells [6]; CL187, 20 μM) was 52.98%, the “proportion of G2/M-phase cells” value (CL187 cells [6]; CL187, 50 μM) was 55.33% and the “expression of P53 (WB)” value (P53) was “promoted the expression of P53”. For the same compound, the “Top1 mRNA expression” value (Top1 mRNA; Tdp1-over CL187 cells) was “suppressed, but there was no significant difference”, the “Top1 mRNA expression” value (Top1 mRNA; siRNA-Tdp1 CL187 cells) was “significantly down-regulated” and the “Top1 mRNA expression” value (Top1 mRNA; wild-type CL187 cells) was “significantly inhibited”. For the same compound, the Top1 protein content (Top1; Tdp1-over CL187 cells) was “reduced in dese-dependent manner”, the Top1 protein content (Top1; siRNA-Tdp1 CL187 cells) was “significantly decreased” and the Top1 protein content (Top1; wild-type CL187 cells) was “decreased in PTE treatment group, but neither in dese-dependent and significant manner”. The Tdp1 protein content (Tdp1; Tdp1-over CL187 cells) was “reduced in dese-dependent manner”, the Tdp1 protein content (Tdp1; siRNA-Top1 CL187 cells) was “reduced in a dose-dependent manner” and the Tdp1 protein content (Tdp1; wild-type CL187 cells) was “decreased in PTE treatment group, but neither in dese-dependent and significant manner”. For the same compound, the IC50 (siRNA-Tdp1 CL187 cells [7]) was 34.2 ± 7.33 µM.
